Consider five molecules from US20120065261A1, “Creatine compositions for skin treatment” (Avicena Group, Inc., priority 2006, published 2012).

The test system of data set [1] is p53 expression in human dermal fibroblasts. Briefly: p53 expression induced by UVB irradiation of human dermal fibroblasts (sandwich ELISA). The format is cell-based. The note with it: 50 μg/ml; UVB 0.15 mW/cm^2; 4 hours accumulation. As for the experimental part: Confluent human dermal fibroblasts were trypsinized, counted and plated at 750,000 cells/well in eight 6-well plates in phenol-free DMEM medium (4 g/L glucose) supplemented with 5% serum. After three hours, creatine ascorbate, creatine monohydrate, creatine pyruvate, ascorbic acid and magnesium ascorbyl phosphate in a concentration of 50 μg/ml were added and cells were incubated overnight at 37° C. in 5% CO2 atmosphere. After 24 hours, p53 protein was induced by UVB irradiation at 0.15 mW/cm^2 for […] and was allowed to accumulate for 4 hours. The cells were then lyzed and total p53 was quantified by sandwich ELISA. The p53 values were standardized with regard to total protein values determined with Bradford reagent. For a description of this assay, see Carlisle et al. “Toxicological Sciences” 55:60 (2000).
Background: In an ELISA, binding on a coated surface is turned into a signal by an enzyme label.

For a further data set, the system named is human dermal fibroblasts. Briefly: Mitochondrial metabolism in human dermal fibroblast cultures (MTT assay). The note with it: for inhibition of mitochondrial metabolism / stimulatory effect on mitochondrial metabolism / stimulation of mitochondrial metabolism: freshly prepared; for inhibition of mitochondrial metabolism: 100 μg/mL and 1000 μg/mL; for stimulatory effect on mitochondrial metabolism: concentrations tested; for effect on mitochondrial metabolism: preincubated solutions (pH 4.0, five days). The format is cell-based. The protocol: The purpose of this assay was to determine the effect creatine ascorbate, creatine monohydrate and creatine pyruvate on the mitochondrial metabolism on the entire cell culture using an MTT assay. The MTT assay measures the activity of succinate dehydrogenase, a key enzyme in the respiratory electron transport chain in mitochondria.
Two sets of aqueous solutions of 10 mg/mL of creatine ascorbate, creatine monohydrate, creatine pyruvate, ascorbic acid and magnesium ascorbyl phosphate were prepared in Type I water. The first set of solutions were prepared immediately before being added to cell cultures. The second set of solutions were preincubated at pH 4.0 (±0.1) five days, then the solutions were lyophilized and the substrates were redissolved in water at 10 mg/mL prior to being added to the cell cultures. Normal human dermal fibroblasts (passage 5, lot number 7F1254, Cambrex, Walkersville, Md.) were seeded in a 96-well plate in phenol red-free DMEM medium (high glucose) containing 2.5% fetal calf serum at 2500 cells per well and test materials, both freshly prepared solutions and preincubated solutions, were added 24 hours later. At the end of the incubation period MTT (3-(4,5-dimethylthiazol-2-yl)-2,5-diphenyltetrazolium bromide) was added to the cell cultures and incubation was pursued for an additional three hours. Culture media were then discarded, the cells were rinsed and the intracellular MTT reduction product, formazan, was solubilized in ethanol/acetic acid. The colorimetric signal proportional to the mitochondrial activity in the cell cultures was measured with a microplate spectrophotometer at 570 nm. For references describing this method, see Berridge et al. “Arch. Biochem. Biophys.” 303:474-482 (1993) and Murimaki et al. “Biochem. Pharmacol.” 44:2191-2197 (1992).
(In general: Tetrazolium dyes change colour on reduction, which living cells bring about.)

The subject of data set [2] is Clostridium collagenase IV. Briefly: Metalloproteinase (collagenase) activity, Enzcheck kit with quenched fluorescent gelatin. The note with it: after incubation of 60 minutes. It counts as biochemical. The protocol: Metalloproteinase (collagenase) activity was measured with Enzcheck kit from Molecular Probes using quenched fluorescent gelatin and Clostridium collagenase IV, a generic collagenase. Creatine ascorbate, creatine monohydrate, creatine pyruvate, ascorbic acid and magnesium ascorbyl phosphate, in concentrations of 1000 μg/mL, 100 μg/mL and 10 μg/mL, were incubated in the presence of a collagenase substrate (quenched fluorescing-linked gelatin) and in the presence of the proteolytic enzyme. Phenantroline, a potent metalloproteinase inhibitor was used as a positive control. The kinetics of the release of the digested, fluorescent gelatin were measured at excitation/emission wavelengths of 485/530 nm.

The nature of data set [3]: Stability of aqueous solutions at pH 4.0 (HPLC). The format is physicochemical. As to conditions: 10 mg/mL, pH 4.0, 5 days at room temperature. As for the experimental part:
Aqueous solutions of 10 mg/mL of creatine ascorbate, creatine monohydrate, creatine pyruvate, ascorbic acid and magnesium ascorbyl phosphate were prepared in Type I water and brought to pH 4.0 (±0.1) by adding acetic acid (creatine ascorbate, creatine monohydrate and magnesium ascorbyl phosphate) or sodium hydroxide (ascorbic acid and creatine pyruvate). The solutions were incubated for 5 days at room temperature and were subsequently lyophilized, redissolved within 60 minutes of analysis and analyzed by isocratic HPLC on a C18 RF column (250 mm×4.6 mm) at 1 mL/min.

The subject of data set [4] is type I collagen levels in human dermal fibroblasts. Briefly: Type I collagen in human dermal fibroblast conditioned medium (sandwich ELISA). It counts as cell-based. The note with it: for levels of type I collagen: freshly prepared solutions. The protocol: Normal human dermal fibroblasts (passage 5, lot number 7F1245, Cambrix, Walkersville, Md.) were seeded in a 96-well plate in DMEM medium (high glucose) containing 5% fetal calf serum and grown to late subconfluent stage. Two sets of aqueous solutions of 10 mg/mL of creatine ascorbate, creatine monohydrate, creatine pyruvate, ascorbic acid and magnesium ascorbyl phosphate were prepared in Type I water. The first set of solutions were prepared immediately before being added to cell cultures. The second set of solutions were preincubated at pH 4.0 (±0.1) five days, then the solutions were lyophilized and the substrates were redissolved in water at 10 mg/mL prior to being added to the cell cultures. Both the freshly prepared solutions and the solutions of preincubated test materials were administered to the cells, and cell culture conditioned media was harvested 5 days after the start of the experiment and tested for type I collagen by sandwich ELISA using affinity purified antibodies, followed by streptavidin-avidin-HRP conjugate and ABTS, according to standard ELISA protocol. The colorimetric signal proportional to collagen content was measured with a microplate spectrophotometer at 405 nm. For references describing this method, see Dobek et al. “J. Dermatol. Sci.” 8:18 (1994) and Zhao et al. “Phytomedicine” 12:132 (2005).

Data set [5] deals with UV-induced lipid peroxidation. Briefly: UV-induced lipid peroxidation of lecithin dispersions (TBARS). It counts as biochemical. As to conditions: 500 μg/mL; UVB irradiation 3 hours. As for the experimental part:
Test materials were added to dispersions of lecithin (a natural phospholipid) and irradiated with UVB light (11,000 μW/cm^2 at the source). After 3 hours, trichloroacetic acid and thiobarbituric acids were added and the concentration of Thiobarbituric Acid Reactive Substance (TBARS), such as malondialdehyde, was measured spectroscopically (malonaldehyde is a breakdown product generated spontaneously from oxidized lipid) at 550 nm using an UV microplate reader. For references describing this method, see Pelle et al. “Arch. Biochem. Biophys.” 283:234-40 (1990); Wang et al. “J. Ethnopharmacol.” 82:169-175 (2002).

Another data set concerns Mushroom tyrosinase. Briefly: Tyrosinase activity in vitro (L-Dopa substrate). It counts as biochemical. The note with it: for inhibition of tyrosinase activity compared to the control: 5 μg/mL. As for the experimental part:
Tyrosinase activity was measured according to the method described by Pomerantz “Biochem. Biophys. Res. Commun.” 16(2):188-194 (1964). Mushroom tyrosinase stock solution was prepared in PBS at 2000 U/mL and stored at […] in 1 mL aliquots. Final concentration was 5 U/well (25 U/mL). Creatine ascorbate, creatine monohydrate, creatine pyruvate, ascorbic acid and magnesium ascorbyl phosphate were dissolved in PBS and further dilutions were made with Type I water. L-Dopa stock solution was 20 mM. The tyrosinase substrate was prepared in PBS. The assays were performed in a 96-well microtiter plates and read at 490 nm.

Setting [6] is: highest concentration, 1000 μg/mL.

As for `O=C1O[C@H]([C@@H](O)CO)C(O)=C1O` [ascorbic acid, reference compound], the “effect on p53 expression induced by UVB irradiation” value (“effect on p53 expression induced” for short) in data set [1] is “no effect”. For the same molecule, in the data set on human dermal fibroblasts, the “inhibition of mitochondrial metabolism” value was “inhibited mitochondrial metabolism” and the “stimulatory effect on mitochondrial metabolism” value (shortened to “stimulatory effect”) was “did not have a stimulatory effect”. For the same molecule, in the data set on human dermal fibroblasts (preincubated, concentration not given), the “inhibitory effect on mitochondrial metabolism” value turned out to be 24%. Further, in data set [2], the “inhibition of collagenase activity compared to the control” value was 39%. In data set [3], the “loss of the absorbance peak / decrease of absorption” value is listed as 28%.
On to `CN(CC(=O)O)C(=N)N.O` [creatine monohydrate], for which the “effect on p53 expression induced” value in data set [1] is on record as “significantly inhibited”. In addition, the “stimulation of mitochondrial metabolism” value in the data set on human dermal fibroblasts (10 μg/mL) was found to be 0%; in the data set on human dermal fibroblasts (100 μg/mL) it was 15%; in the data set with human dermal fibroblasts (1000 μg/mL), 28%. Also, the “effect on mitochondrial metabolism” value in the data set on human dermal fibroblasts is “stimulated mitochondrial metabolism, although not to the extent of the freshly prepared creatine monohydrate”. The “inhibition of collagenase activity compared to the control” value in data set [2] is listed as “Neither creatine monohydrate nor magnesium ascorbyl phosphate showed any inhibitory activity”. Besides, the “levels of type I collagen” value in data set [4] (10 μg/mL and 100 μg/mL) is “moderately increased”; in data set [4] (setting [6]), “better than creatine ascorbate and ascorbic acid”.
Regarding `O=C1O[C@H]([C@@H](O)CO)C([O-])=C1OP(=O)([O-])[O-].O=C1O[C@H]([C@@H](O)CO)C([O-])=C1OP(=O)([O-])[O-].[Mg+2].[Mg+2].[Mg+2]` [magnesium ascorbyl phosphate, reference compound], the “effect on p53 expression induced” value in data set [1] is “significantly inhibited”. In the data set with human dermal fibroblasts, the “stimulatory effect” value is on record as “greatest stimulatory activity” and the “effect on mitochondrial metabolism” value is “exhibited stimulation”. In addition, in data set [2], the “inhibition of collagenase activity compared to the control” value is reported as “Neither creatine monohydrate nor magnesium ascorbyl phosphate showed any inhibitory activity”. In data set [4] (all concentrations, 5 days), the “levels of type I collagen” value is “large increase”. The “stimulation of type I collagen” value in data set [4] (results of both assays (fresh and preincubated)) is reported as “strong stimulation”.
As to creatine ascorbate, the “effect on p53 expression induced” value in data set [1] is listed as “significantly inhibited”. For the same molecule, in the data set with human dermal fibroblasts, the “inhibition of mitochondrial metabolism” value was “inhibited mitochondrial metabolism”, the “stimulatory effect” value was “did not have a stimulatory effect” and the “effect on mitochondrial metabolism” value is given as “superior to preincubated ascorbic acid”. Also, in data set [2], the “inhibition of collagenase activity compared to the control” value is on record as 11.5%. Besides, the “degradation in aqueous solution” value in data set [3] is “minor to no degradation”. Further, in data set [5], the “inhibition of lipid peroxidation” value is reported as 21%. In data set [4] (100 μg/mL), the “stimulation of type I collagen compared with reference substances” value was “comparable to that of magnesium ascorbyl phosphate and better than ascorbic acid”. Further, the “stimulation of type I collagen levels above the non-treated control (water)” value in data set [4] (dose-dependent, conclusion of both assays (fresh and preincubated)) is reported as “about 50%”. In data set [4] (10 μg/mL and 100 μg/mL), the “levels of type I collagen” value was “significantly increased”. Also, the “levels of type I collagen” value in data set [4] (setting [6]) was “significantly lower”. For the same molecule, in the data set with Mushroom tyrosinase, the “tyrosinase inhibitory activity compared with reference substances” value was “lower than the activity of ascorbic acid and was similar to the activity of magnesium ascorbyl phosphate”; the “inhibition of tyrosinase activity compared to the control” value was 26%. Further, the “inhibitory effect on the tyrosinase activity” value with Mushroom tyrosinase (500 μg/mL and 50 μg/mL) is listed as “significant inhibitory effect”.
With creatine pyruvate, the “effect on p53 expression induced” value in data set [1] was “significantly inhibited”. For the same molecule, the “inhibition of mitochondrial metabolism” value in the data set on human dermal fibroblasts is 17%. The “effect on mitochondrial metabolism” value with human dermal fibroblasts is “not to be inhibitory”. The “inhibition of collagenase activity compared to the control” value in data set [2] stood at 27%. In addition, the “loss of the absorbance peak / decrease of absorption” value in data set [3] was 42%. Also, the “levels of type I collagen” value is “moderately increased” in data set [4] (10 μg/mL and 100 μg/mL); “better than creatine ascorbate and ascorbic acid” in data set [4] (setting [6]). Moreover, the “inhibition of tyrosinase activity compared to the control” value in the data set on Mushroom tyrosinase is “no inhibition”. Besides, the results for the “inhibition of tyrosinase activity” value with Mushroom tyrosinase (50 μg/mL) and in the data set with Mushroom tyrosinase (500 μg/mL) were 10% and 100%, respectively.
